Test system: 186277-243-T-J2-PDC complex spheroid viability
Test: Anticancer human tumor 186277-243-T-J2-PDC patient-derived colon adenocarcinoma cell line growth inhibition [GQUAD]
Conditions: for IC50: curve of first compound; for viability, T/C: stronger effect = lower value
Summary of the method: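 Viability of tumor cells grown as complex spheroids with endothelial and stromal cells, exposed to drug combinations. Top concentration at or near clinical Cmax (else 10 microM), diluted in half-log increments.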

[1] = second compound 0.0316 µM, first compound 0.0316 µM
[2] = second compound 0.0316 µM, first compound 0.1 µM
[3] = second compound 0.0316 µM, first compound 0.316 µM
[4] = second compound 0.0316 µM, first compound 1 µM
[5] = second compound 0.0316 µM, first compound 3.16 µM
[6] = second compound 0.0316 µM, first compound 10 µM
[7] = second compound 0.1 µM, first compound 0.0316 µM
[8] = second compound 0.1 µM, first compound 0.1 µM
[9] = second compound 0.1 µM, first compound 0.316 µM
[10] = second compound 0.1 µM, first compound 1 µM
[11] = second compound 0.1 µM, first compound 3.16 µM
[12] = second compound 0.1 µM, first compound 10 µM
[13] = second compound 0.316 µM, first compound 0.0316 µM
[14] = second compound 0.316 µM, first compound 0.1 µM
[15] = second compound 0.316 µM, first compound 0.316 µM
[16] = second compound 0.316 µM, first compound 1 µM
[17] = second compound 0.316 µM, first compound 3.16 µM
[18] = second compound 0.316 µM, first compound 10 µM
[19] = second compound 1 µM, first compound 0.0316 µM
[20] = second compound 1 µM, first compound 0.1 µM
[21] = second compound 1 µM, first compound 0.316 µM
[22] = second compound 1 µM, first compound 1 µM
[23] = second compound 1 µM, first compound 3.16 µM
[24] = second compound 1 µM, first compound 10 µM
[25] = second compound 3.16 µM, first compound 0.0316 µM
[26] = second compound 3.16 µM, first compound 0.1 µM
[27] = second compound 3.16 µM, first compound 0.316 µM
[28] = second compound 3.16 µM, first compound 1 µM
[29] = second compound 3.16 µM, first compound 3.16 µM
[30] = second compound 3.16 µM, first compound 10 µM
[31] = second compound 10 µM, first compound 0.0316 µM
[32] = second compound 10 µM, first compound 0.1 µM
[33] = second compound 10 µM, first compound 0.316 µM
[34] = second compound 10 µM, first compound 1 µM
[35] = second compound 10 µM, first compound 3.16 µM
[36] = second compound 10 µM, first compound 10 µM
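Wherever viability, T/C is given: 100% = DMSO vehicle control viability.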

C#Cc1c(F)ccc2cc(O)cc(-c3ncc4c(N5CC6CCC(C5)N6)nc(OCC56CCCN5CC(F)C6)nc4c3F)c12 (stereo not drawn) + Cc1[nH]c2ccc(F)cc2c1-c1nc2c3cccnc3c3ncccc3c2[nH]1
IC50 (second compound 0.0316 µM): 0.0743 µM | IC50 (second compound 0.1 µM): 0.0854 µM | IC50 (second compound 0.316 µM): 0.0641 µM | IC50 (second compound 1 µM): 0.0613 µM | IC50 (second compound 3.16 µM): 0.0517 µM | IC50 (second compound 10 µM): < 0.0316 µM | viability, T/C [1]: 94.1% | viability, T/C [2]: 34.5% | viability, T/C [3]: 14.3% | viability, T/C [4]: 7.64% | viability, T/C [5]: 7.24% | viability, T/C [6]: 5.55% | viability, T/C [7]: 106% | viability, T/C [8]: 41.1% | viability, T/C [9]: 14.2% | viability, T/C [10]: 8.6% | viability, T/C [11]: 7.78% | viability, T/C [12]: 5.66% | viability, T/C [13]: 78.1% | viability, T/C [14]: 30.7% | viability, T/C [15]: 18.1% | viability, T/C [16]: 7.67% | viability, T/C [17]: 7.43% | viability, T/C [18]: 3.69% | viability, T/C [19]: 68.6% | viability, T/C [20]: 36% | viability, T/C [21]: 17.7% | viability, T/C [22]: 7.93% | viability, T/C [23]: 6.21% | viability, T/C [24]: 5.18% | viability, T/C [25]: 56% | viability, T/C [26]: 42.3% | viability, T/C [27]: 19.2% | viability, T/C [28]: 10.7% | viability, T/C [29]: 5.86% | viability, T/C [30]: 3.99% | viability, T/C [31]: 47.4% | viability, T/C [32]: 38.2% | viability, T/C [33]: 16.8% | viability, T/C [34]: 7.64% | viability, T/C [35]: 7.32% | viability, T/C [36]: 2.6%

CCCS(=O)(=O)Nc1ccc(F)c(C(=O)c2c[nH]c3ncc(-c4ccc(Cl)cc4)cc23)c1F + Cc1[nH]c2ccc(F)cc2c1-c1nc2c3cccnc3c3ncccc3c2[nH]1
IC50 (second compound 0.0316 µM): 6.01 µM | IC50 (second compound 0.1 µM): 6.44 µM | IC50 (second compound 0.316 µM): 5.92 µM | IC50 (second compound 1 µM): 6.94 µM | IC50 (second compound 3.16 µM): 5.65 µM | IC50 (second compound 10 µM): 5.28 µM | viability, T/C [1]: 109% | viability, T/C [2]: 105% | viability, T/C [3]: 99% | viability, T/C [4]: 91% | viability, T/C [5]: 86% | viability, T/C [6]: 24.1% | viability, T/C [7]: 111% | viability, T/C [8]: 107% | viability, T/C [9]: 101% | viability, T/C [10]: 103% | viability, T/C [11]: 98.5% | viability, T/C [12]: 20% | viability, T/C [13]: 111% | viability, T/C [14]: 107% | viability, T/C [15]: 104% | viability, T/C [16]: 119% | viability, T/C [17]: 82.7% | viability, T/C [18]: 22.7% | viability, T/C [19]: 89.6% | viability, T/C [20]: 107% | viability, T/C [21]: 108% | viability, T/C [22]: 115% | viability, T/C [23]: 103% | viability, T/C [24]: 25.3% | viability, T/C [25]: 110% | viability, T/C [26]: 113% | viability, T/C [27]: 97.9% | viability, T/C [28]: 95% | viability, T/C [29]: 89.8% | viability, T/C [30]: 13.7% | viability, T/C [31]: 90.2% | viability, T/C [32]: 95.9% | viability, T/C [33]: 103% | viability, T/C [34]: 98.4% | viability, T/C [35]: 82% | viability, T/C [36]: 9.98%

Cc1[nH]c2ccccc2c1CCNCc1ccc(/C=C/C(=O)NO)cc1 + Cc1[nH]c2ccc(F)cc2c1-c1nc2c3cccnc3c3ncccc3c2[nH]1
IC50 (second compound 0.0316 µM): 0.0413 µM | IC50 (second compound 0.1 µM): 0.0442 µM | IC50 (second compound 0.316 µM): 0.0471 µM | IC50 (second compound 1 µM): 0.0418 µM | IC50 (second compound 3.16 µM): 0.0404 µM | IC50 (second compound 10 µM): 0.0475 µM | viability, T/C (second compound 0.0316 µM, first compound 0.000999 µM): 110% | viability, T/C (second compound 0.0316 µM, first compound 0.00316 µM): 108% | viability, T/C (second compound 0.0316 µM, first compound 0.00999 µM): 104% | viability, T/C [1]: 62.1% | viability, T/C (second compound 0.0316 µM, first compound 0.0999 µM): 9.83% | viability, T/C [3]: 0.44% | viability, T/C (second compound 0.1 µM, first compound 0.000999 µM): 115% | viability, T/C (second compound 0.1 µM, first compound 0.00316 µM): 105% | viability, T/C (second compound 0.1 µM, first compound 0.00999 µM): 90.7% | viability, T/C [7]: 69.8% | viability, T/C (second compound 0.1 µM, first compound 0.0999 µM): 10.4% | viability, T/C [9]: 0.56% | viability, T/C (second compound 0.316 µM, first compound 0.000999 µM): 93.3% | viability, T/C (second compound 0.316 µM, first compound 0.00316 µM): 101% | viability, T/C (second compound 0.316 µM, first compound 0.00999 µM): 97% | viability, T/C [13]: 71.2% | viability, T/C (second compound 0.316 µM, first compound 0.0999 µM): 9.88% | viability, T/C [15]: 1.7% | viability, T/C (second compound 1 µM, first compound 0.000999 µM): 90.5% | viability, T/C (second compound 1 µM, first compound 0.00316 µM): 107% | viability, T/C (second compound 1 µM, first compound 0.00999 µM): 104% | viability, T/C [19]: 62.8% | viability, T/C (second compound 1 µM, first compound 0.0999 µM): 9.69% | viability, T/C [21]: 0.96% | viability, T/C (second compound 3.16 µM, first compound 0.000999 µM): 101% | viability, T/C (second compound 3.16 µM, first compound 0.00316 µM): 111% | viability, T/C (second compound 3.16 µM, first compound 0.00999 µM): 100% | viability, T/C [25]: 61.1% | viability, T/C (second compound 3.16 µM, first compound 0.0999 µM): 9% | viability, T/C [27]: 0.47% | viability, T/C (second compound 10 µM, first compound 0.000999 µM): 95% | viability, T/C (second compound 10 µM, first compound 0.00316 µM): 98.5% | viability, T/C (second compound 10 µM, first compound 0.00999 µM): 99.9% | viability, T/C [31]: 71.1% | viability, T/C (second compound 10 µM, first compound 0.0999 µM): 11.2% | viability, T/C [33]: 1.07%

O=C(NO)c1cnc(N2CCN(S(=O)(=O)c3ccc4ccccc4c3)CC2)nc1 + Cc1[nH]c2ccc(F)cc2c1-c1nc2c3cccnc3c3ncccc3c2[nH]1
IC50 (second compound 0.0316 µM): 0.183 µM | IC50 (second compound 0.1 µM): 0.187 µM | IC50 (second compound 0.316 µM): 0.203 µM | IC50 (second compound 1 µM): 0.19 µM | IC50 (second compound 3.16 µM): 0.203 µM | IC50 (second compound 10 µM): 0.218 µM | viability, T/C [1]: 100% | viability, T/C [2]: 94% | viability, T/C [3]: 9.84% | viability, T/C [4]: 0.27% | viability, T/C [5]: 0.17% | viability, T/C [6]: 0.17% | viability, T/C [7]: 117% | viability, T/C [8]: 95% | viability, T/C [9]: 12.1% | viability, T/C [10]: 0.25% | viability, T/C [11]: 0.14% | viability, T/C [12]: 0.12% | viability, T/C [13]: 103% | viability, T/C [14]: 115% | viability, T/C [15]: 13.1% | viability, T/C [16]: 0.3% | viability, T/C [17]: 0.12% | viability, T/C [18]: 0.11% | viability, T/C [19]: 91.5% | viability, T/C [20]: 95.1% | viability, T/C [21]: 15.3% | viability, T/C [22]: 0.34% | viability, T/C [23]: 0.11% | viability, T/C [24]: 0.13% | viability, T/C [25]: 100% | viability, T/C [26]: 98.2% | viability, T/C [27]: 19.7% | viability, T/C [28]: 0.38% | viability, T/C [29]: 0.14% | viability, T/C [30]: 0.16% | viability, T/C [31]: 100% | viability, T/C [32]: 98.5% | viability, T/C [33]: 26.7% | viability, T/C [34]: 0.52% | viability, T/C [35]: 0.2% | viability, T/C [36]: 0.22%
